Experimental data taken from patent publication US20100197591A1, “4-AMINO-7,8-DIHYDROPYRIDO[4,3-d]PYRIMIDIN-5(6H)-ONE DERIVATIVES” (pfizer Inc, priority 2009, published 2010).

Key:
Assay type in all cases: biochemical
[1] = target: T1, Human full-length diacylglycerol:acylCoA acyltransferase 1 (DGAT-1) (Homo sapiens, UniProt O75907); experiment: DGAT-1 Reduced Microsome Multidose Assay, G7829E Human IC50; settings: crude membrane fraction of Sf9 cells expressing human DGAT-1; [14C]decanoylCoA; terminated with 5 μl of 1.4% phosphoric acid instead of HCl; average where tested more than once
T1 construct: Human full-length diacylglycerol:acylCoA acyltransferase 1 (DGAT-1) was expressed in Sf9 insect cells; made in house; host or cells: Sf9 insect cells (baculovirus); crude membrane/microsome fraction
T1 sequence (O75907 1-488): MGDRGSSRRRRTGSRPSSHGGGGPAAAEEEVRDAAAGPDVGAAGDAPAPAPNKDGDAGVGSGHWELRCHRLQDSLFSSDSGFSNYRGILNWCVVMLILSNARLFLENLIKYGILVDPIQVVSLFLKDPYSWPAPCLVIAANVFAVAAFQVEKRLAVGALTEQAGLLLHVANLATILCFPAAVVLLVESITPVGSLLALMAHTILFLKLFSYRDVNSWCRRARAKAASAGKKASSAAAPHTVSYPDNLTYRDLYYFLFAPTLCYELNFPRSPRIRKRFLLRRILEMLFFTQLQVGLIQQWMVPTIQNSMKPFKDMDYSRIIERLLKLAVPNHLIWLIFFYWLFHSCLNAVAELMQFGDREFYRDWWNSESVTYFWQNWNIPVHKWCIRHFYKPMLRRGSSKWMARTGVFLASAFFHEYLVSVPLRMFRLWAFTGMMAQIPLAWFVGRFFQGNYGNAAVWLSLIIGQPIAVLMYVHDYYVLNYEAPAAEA
Method: (§1) Human full-length diacylglycerol:acylCoA acyltransferase 1 (DGAT-1) was expressed in Sf9 insect cells which are then lysed and a crude membrane fraction (105,000×g pellet) was prepared. The DGAT-1 gene is a human DGAT-1 gene described in J Biol Chem 273:26765 (1998) and U.S. Pat. No. 6,100,077.
(§2) In vitro inhibition of DGAT-1 was measured using a modification, further described below, of the assay methodology described in U.S. Pat. No. 6,994,956 B2.
(§3) The cells were cultured as follows. Sf9 cells (20 L) were infected with 4 mL of DGAT-1 Baculovirus Infected Insect Cells (BIIC) for 72 hours in a Wave Bioreactor System 20/50P (Wave Biotec/GE Healthcare).
(§4) Crude DGAT-1 microsomes were prepared as follows. Cell pellets were washed once with ice-cold Dulbecco's phosphate-buffered saline. Cells were collected in tabletop centrifuge (Beckman GS-6KR), 15 minutes, 2000×g, 4° C. Twenty (20) mL of ice-cold Microsome Buffer (MB) was added per 5 g of cell pellet. The suspension was passed through a microfluidizer 3 times (18K psi). The lysate was transferred to centrifuge tubes and centrifuged for 20 minutes at 5000×g (Beckman-Coulter, Inc. Allegra® 64R High-Speed Refrigerated Benchtop Centrifuge, F0650 rotor) at 4° C. The supernatant was transferred to ultracentrifuge tubes and centrifuged at 125,000×g for 1 hour in a Beckman Ti-45 rotor, 4° C. The supernatant fluid was discarded. The pellet was resuspended in 70 mL of MB by sonication. The microsome concentration was determined using Bio-Rad Protein DC Protein Assay. The microsomes were filter sterilized with a 0.22 μm filter. The samples were portioned, flash frozen and stored at −80° C.
(§5) The Microsome Buffer, used for microsome preparation, was prepared by conventional means and contained 125 mM sucrose, 3 mM imidazole, 0.2 μg/mL aprotinin, 0.2 μg/mL leupeptin and 5 mM dithiothreitol (Cleland's reagent), DGAT-1 activity was measured in 384-well format in a total assay volume of 25 μl that contained, Hepes buffer (50 mM, pH 7.5), MgCl2 (10 mM), bovine serum albumin (0.6 mg/ml), [^14C]decanoylCoA (20 μM, 58 Ci/mol) and membranes (25 μg/ml) into which 1,2 dioleoyl-sn-glycerol (75 μM) in acetone has already been incorporated. Inhibitors in DMSO were pre-incubated with membranes before initiating the DGAT-1 reaction by the addition of decanoylCoA. […] The DMSO concentration was 2.5%. The inhibitors were present at a range of eight concentrations to generate an apparent IC50 for each compound. The eight inhibitor concentration employed ranged from 10 μM to 3 nM (from high to low concentration). Specifically, the eight concentrations used were 10 μM, 3 μM, 1 μM, 300 nM, 100 nM, 30 nM, 10 nM and 3 nM.
(§6) Reaction mixtures were neutralized by the addition of 15 μl of tris(hydroxy-methyl)aminomethane (1M, pH 8.0) and then mixed by trituration with 37.5 μl of Microscint™-E (Perkin Elmer). Plates contents were allowed to partition for 15 to 30 min before ^14C was measured in a scintillation spectrometer (Wallac Microbeta Trilux 1450-030 liquid scintillation counter 12 detector in the top-count DPM mode). Percent inhibition of test compounds was computed as 100-((DPM DMSO uninhibited-DPM test compound)/(DPM DMSO uninhibited)).
Four separate assays were performed using 4 different methods of analysis. The method of analysis of Assay 1 was the same as Assay 4 (described above) except microsomes were utilized at 25 μg/mL instead of 5 μg/mL. The method of analysis of Assay 2 was the same as Assay 4 (described above) except eleven (11) concentrations of inhibitor were employed instead of eight (8). The method of analysis of Assay 3 was the same as Assay 2 except the compounds were serially diluted in a different laboratory.
Where this DGAT-1 inhibition assay was performed on a compound more than once, an average is provided for that compound.

[2] = target: T1, Human full-length diacylglycerol:acylCoA acyltransferase 1 (DGAT-1); experiment: DGAT-1 Reduced Microsome Multidose Assay, G7329F Human IC50; settings: crude membrane fraction of Sf9 cells expressing human DGAT-1; [14C]decanoylCoA; apparent IC50, average where tested more than once
Summary of the method: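 Sf9-expressed full-length DGAT-1 microsomes (25 or 5 μg/mL) with incorporated 1,2-dioleoyl-sn-glycerol (75 μM), pH 7.5 Hepes, 20 μM [14C]decanoylCoA, 2.5% DMSO, inhibitor pre-incubated. Eight (3 nM–10 μM) or eleven concentrations; 14C product by scintillation gives apparent IC50, averaged over repeats.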

[3] = target: T1, Human full-length diacylglycerol:acylCoA acyltransferase 1 (DGAT-1); experiment: DGAT-1 Reduced Microsome Multidose Assay, G7329E Human IC50; settings: crude membrane fraction of Sf9 cells expressing human DGAT-1; [14C]decanoylCoA; apparent IC50, average where tested more than once
Method: as §1, §2, §3, §4, §5, §6
Four separate assays were performed using 4 different methods of analysis. The method of analysis of Assay 1 was the same as Assay 4 (described above) except microsomes were utilized at 25 μg/mL instead of 5 μg/mL. […]

[4] = target: T1, Human full-length diacylglycerol:acylCoA acyltransferase 1 (DGAT-1); experiment: DGAT-1 Reduced Microsome Multidose Assay, G7329B Human IC50; settings: crude membrane fraction of Sf9 cells expressing human DGAT-1; [14C]decanoylCoA; apparent IC50, average where tested more than once
Method: as §1, §2, §3
Crude DGAT-1 microsomes were prepared as follows. Cell pellets were washed once with ice-cold Dulbecco's phosphate-buffered saline. Cells were collected in tabletop centrifuge (Beckman GS-6KR), 15 minutes, 2000×g, 4° C. Twenty (20) mL of ice-cold Microsome Buffer (MB) was added per 5 g of cell pellet. The suspension was passed through a microfluidizer 3 times (18K psi). […] The microsome concentration was determined using Bio-Rad Protein DC Protein Assay. […]
The Microsome Buffer, used for microsome preparation, was prepared by conventional means and contained 125 mM sucrose, 3 mM imidazole, 0.2 μg/mL aprotinin, 0.2 μg/mL leupeptin and 5 mM dithiothreitol (Cleland's reagent), DGAT-1 activity was measured in 384-well format in a total assay volume of 25 μl that contained, Hepes buffer (50 mM, pH 7.5), MgCl2 (10 mM), bovine serum albumin (0.6 mg/ml), [^14C]decanoylCoA (20 μM, 58 Ci/mol) and membranes (25 μg/ml) into which 1,2 dioleoyl-sn-glycerol (75 μM) in acetone has already been incorporated. […]
as §6, with “Percent inhibition of test compounds was computed as 100-((DPM DMSO uninhibited-DPM test compound)/(DPM DMSO uninhibited)).” left out

IC50 [1] [nM]	IC50 [2] [nM]	IC50 [3] [nM]	IC50 [4] [nM]	Structure (SMILES)
67.3	68.9			COc1nc(N)c2c(n1)CCN(c1ccc(C(C)(C)c3ncno3)cc1)C2=O (single isomer, unassigned) [Example 3L]
55.2	77.8			COc1nc(N)c2c(n1)CCN(c1ccc(C(C)(C)c3ncon3)cc1)C2=O (single isomer, unassigned) [Example 3M, 4-amino-2-methoxy-6-{4-[1-methyl-1-(1,2,4-oxadiazol-3-yl)ethyl]phenyl}-7,8-dihydropyrido[4,3-d]pyrimidin-5(6H)-one]
55.1	112			COc1nc(N)c2c(n1)CCN(c1ccc(C(=O)OCC(C)(C)C)cc1)C2=O [Example 2F, 2,2-dimethylpropyl 4-(4-amino-2-methoxy-5-oxo-7,8-dihydropyrido[4,3-d]pyrimidin-6(5H)-yl)benzoate]
21.1				COc1nc(N)c2c(n1)CCN(c1ccc(C(C)(C)c3nnn(C)n3)cc1)C2=O [Example 3R, 4-amino-2-methoxy-6-{4-[1-methyl-1-(2-methyl-2H-tetrazol-5-yl)ethyl]phenyl}-7,8-dihydropyrido[4,3-d]pyrimidin-5(6H)-one]
19.6				COc1nc(N)c2c(n1)CCN(c1ccc(C(C)(C)CNC(=O)OC(C)(C)C)cc1)C2=O [Example 3T, tert-butyl {2-[4-(4-amino-2-methoxy-5-oxo-7,8-dihydropyrido[4,3-d]pyrimidin-6(5H)-yl)phenyl]-2-methylpropyl}carbamate]
20.7				COc1nc(N)c2c(n1)CCN(c1ccc(C3(C#N)CCC3)cc1)C2=O [Example 4A, 1-[4-(4-amino-2-methoxy-5-oxo-7,8-dihydropyrido[4,3-d]pyrimidin-6(5H)-yl)phenyl]cyclobutanecarbonitrile]
78.6				COc1nc(N)c2c(n1)CCN(c1ccc(C3(C(N)=O)CCC3)cc1)C2=O [Example 5A, 1-[4-(4-amino-2-methoxy-5-oxo-7,8-dihydropyrido[4,3-d]pyrimidin-6(5H)-yl)phenyl]cyclobutanecarboxamide]
184				COc1nc(N)c2c(n1)CCN(c1ccc(C3(C(N)=O)CCCCC3)cc1)C2=O [Example 5B, 1-[4-(4-amino-2-methoxy-5-oxo-7,8-dihydropyrido[4,3-d]pyrimidin-6(5H)-yl)phenyl]cyclohexanecarboxamide]
217				COc1nc(N)c2c(n1)CCN(c1ccc(C3(C(N)=O)CCCC3)cc1)C2=O [Example 5C, 1-[4-(4-amino-2-methoxy-5-oxo-7,8-dihydropyrido[4,3-d]pyrimidin-6(5H)-yl)phenyl]cyclopentanecarboxamide]
	8.88	49		COc1nc(N)c2c(n1)CCN(c1ccc(C(C)(C)C)cc1)C2=O [Example 6A, 4-amino-6-(4-tert-butylphenyl)-2-methoxy-7,8-dihydropyrido[4,3-d]pyrimidin-5(6H)-one]
	17.1	58.5		COc1nc(N)c2c(n1)CCN(c1ccc(C(C)C)cc1)C2=O [Example 6E, 4-amino-6-(4-isopropylphenyl)-2-methoxy-7,8-dihydropyrido[4,3-d]pyrimidin-5(6-H)-one]
	32.5	133		COc1nc(N)c2c(n1)CCN(c1ccc([C@H]3CC[C@H](CC#N)CC3)cc1)C2=O [Example 7C, {trans-4-[4-(4-amino-2-methoxy-5-oxo-7,8-dihydropyrido[4,3-d]pyrimidin-6(5H)-yl)phenyl]cyclohexyl}acetonitrile]
		124		COc1nc(N)c2c(n1)CCN(c1ccc(I)cc1)C2=O [Example 9E, 4-amino-6-(4-iodophenyl)-2-methoxy-7,8-dihydropyrido[4,3-d]pyrimidin-5(6H)-one]
1380				COc1nc(N)c2c(n1)CCN(c1ccc3c(c1)CC(C)(C)O3)C2=O [Example 9M, 4-amino-6-(2,2-dimethyl-2,3-dihydro-1-benzofuran-5-yl)-2-methoxy-7,8-dihydropyrido[4,3-d]pyrimidin-5(6H)-one]
		13700	5030	Cc1nc(N)c2c(n1)CCN(c1ccc(I)cc1)C2=O [Example 9Q, 4-amino-6-(4-iodophenyl)-2-methyl-7,8-dihydropyrido[4,3-d]pyrimidin-5(6H)-one]
			1030	Cc1nc(N)c2c(n1)CCN(c1ccc(C3CCC(CCO)CC3)cc1)C2=O (stereo not drawn) [Example 9R, 4-amino-6-{4-[4-(2-hydroxyethyl)cyclohexyl]phenyl}-2-methyl-7,8-dihydropyrido[4,3-d]pyrimidin-5(6H)-one]
			1890	Cc1nc(N)c2c(n1)CCN(c1ccc(C3CCC(CC#N)CC3)cc1)C2=O (stereo not drawn) [Example 9T, {4-[4-(4-amino-2-methyl-5-oxo-7,8-dihydropyrido[4,3-d]pyrimidin-6(5H)-yl)phenyl]cyclohexyl}acetonitrile]
